Source: patent US4386090A, “Nitrogen containing 2,3-dihydro naphthalenes, compositions and use” (Delalande S.A., priority 1980, dated 1983)

System: mice
Test: antidepressive activity, antagonism to ptosis after intravenous injection of reserpine
Type: in vivo
Details: Mus musculus, ip, 1 h, i.p., ptosis observed an hour after i.v. reserpine 2 mg/kg, read-out: ED 50 antidepressive property
Text: GOURET and J. THOMAS in J. Pharmacol. (Paris) (1973), 4, 401.

SMILES | ED50 [mg/kg]
CN(C)CCC1Cc2ccccc2C(c2cccc(F)c2)=N1 (stereo not shown) [compound 23] | 2
COc1ccc(C2=NC(CCN(C)C)Cc3ccccc32)cc1 (stereo not shown) [compound 30] | 4.2
NCCC1Cc2ccccc2C(c2ccccc2)=N1 (stereo not shown) [compound 15] | 0.9
COc1cccc(C2=NC(CCN(C)C)Cc3ccccc32)c1 (stereo not shown) [compound 29] | 6.8
CN(C)CC1COc2ccccc2C(c2cccc(Cl)c2)=N1 (stereo not shown) [compound 43] | 3
NCCC1Cc2ccccc2C(c2ccccc2F)=N1 (stereo not shown) [compound 20] | 1.8
CN(C)CC1Cc2ccc(Cl)cc2C(c2ccccc2)=N1 (stereo not shown) [Code Number 11] | 0.8
CN(C)CCC1Cc2ccc(Cl)cc2C(c2ccccc2)=N1 (stereo not shown) [compound 19] | 3.8
CN(C)CCC1Cc2ccccc2C(c2cccnc2)=N1 (stereo not shown) [compound 108] | 12
CN(C)CCC1Cc2ccccc2C(c2ccc([N+](=O)[O-])cc2)=N1 (stereo not shown) [compound 35] | 8
CNCCC1Cc2ccccc2C(c2ccccc2)=N1 (stereo not shown) [compound 16] | 8.2
CN(C)CC1COc2ccccc2C(c2cccc(F)c2)=N1 (stereo not shown) [compound 87] | 30
Cc1ccccc1C1=NC(CCN(C)C)Cc2ccccc21 (stereo not shown) [compound 31] | 1.8
CNCCC1Cc2ccccc2C(c2ccccc2F)=N1 (stereo not shown) [compound 21] | 1.2
CN(C)CCC1Cc2ccccc2C(c2ccccn2)=N1 (stereo not shown) [compound 86] | 4
CN(C)CCC1C=C(c2ccccc2)c2ccccc2C1 (stereo not shown) [Code Number 2] | 1
CN(C)CCC1C=C(c2ccccc2F)c2ccccc2C1 (stereo not shown) [compound 101] | 0.4
CN(C)CC1Cc2ccc(Cl)cc2C(c2ccccc2F)=N1 (stereo not shown) [Code Number 9] | 4.3
CN(C)CCCC1Cc2ccccc2C(c2ccccc2)=N1 (stereo not shown) [compound 38] | 3.4
CN(C)CC1Cc2ccc(F)cc2C(c2ccccc2)=N1 (stereo not shown) [compound 10] | 2.8
CN(C)CC1Cc2ccccc2C(c2ccccc2)=N1 (stereo not shown) [compound 6] | 3.5
CN(C)CCC1Cc2ccccc2C(c2ccccc2[N+](=O)[O-])=N1 (stereo not shown) [compound 34] | 1
CN(C)CC1Cc2ccccc2C(c2ccccc2F)=N1 (stereo not shown) [Code Number 8] | 1.1
CN1CCN(CC2Cc3ccccc3C(c3ccccc3)=N2)CC1 (stereo not shown) [compound 7] | 10
Cc1ccc(C2=NC(CCN(C)C)Cc3ccccc32)cc1 (stereo not shown) [compound 33] | 2.7
CN(C)CCC1Cc2ccccc2C(c2ccccc2)=N1 (stereo not shown) [compound 17] | 1.5
CN(C)CCC1Cc2ccccc2C(c2ccccc2Br)=N1 (stereo not shown) [compound 36] | 2.4
CN(C)CCC1Cc2ccccc2C(c2ccccc2C(F)(F)F)=N1 (stereo not shown) [compound 103] | 3.8

System: not listed separately
Test: acute toxicity (LD 50)
Details: in vivo, ip
Text: To illustrate the invention, there are shown in table IV below, the results obtained in these two tests and the acute toxicity (LD 50) of some compounds of formula (I).

SMILES | LD50 [mg/kg]
CN(C)CCC1Cc2ccccc2C(c2cccc(F)c2)=N1 (stereo not shown) [compound 23] | 55
COc1ccc(C2=NC(CCN(C)C)Cc3ccccc32)cc1 (stereo not shown) [compound 30] | 70
NCCC1Cc2ccccc2C(c2ccccc2)=N1 (stereo not shown) [compound 15] | 67
COc1cccc(C2=NC(CCN(C)C)Cc3ccccc32)c1 (stereo not shown) [compound 29] | 78
CN(C)CC1COc2ccccc2C(c2cccc(Cl)c2)=N1 (stereo not shown) [compound 43] | 65
NCCC1Cc2ccccc2C(c2ccccc2F)=N1 (stereo not shown) [compound 20] | 62
CN(C)CC1Cc2ccc(Cl)cc2C(c2ccccc2)=N1 (stereo not shown) [Code Number 11] | 37
CN(C)CCC1Cc2ccc(Cl)cc2C(c2ccccc2)=N1 (stereo not shown) [compound 19] | 95
CN(C)CCC1Cc2ccccc2C(c2cccnc2)=N1 (stereo not shown) [compound 108] | 90
CN(C)CCC1Cc2ccccc2C(c2ccc([N+](=O)[O-])cc2)=N1 (stereo not shown) [compound 35] | 80
CNCCC1Cc2ccccc2C(c2ccccc2)=N1 (stereo not shown) [compound 16] | 65
CN(C)CC1COc2ccccc2C(c2cccc(F)c2)=N1 (stereo not shown) [compound 87] | 100
Cc1ccccc1C1=NC(CCN(C)C)Cc2ccccc21 (stereo not shown) [compound 31] | 50
CNCCC1Cc2ccccc2C(c2ccccc2F)=N1 (stereo not shown) [compound 21] | 70
CN(C)CCC1Cc2ccccc2C(c2ccccn2)=N1 (stereo not shown) [compound 86] | 94
CN(C)CCC1C=C(c2ccccc2)c2ccccc2C1 (stereo not shown) [Code Number 2] | 110
CN(C)CCC1C=C(c2ccccc2F)c2ccccc2C1 (stereo not shown) [compound 101] | 93
CN(C)CC1Cc2ccc(Cl)cc2C(c2ccccc2F)=N1 (stereo not shown) [Code Number 9] | 52
CN(C)CCCC1Cc2ccccc2C(c2ccccc2)=N1 (stereo not shown) [compound 38] | 85
CN(C)CC1Cc2ccc(F)cc2C(c2ccccc2)=N1 (stereo not shown) [compound 10] | 60
CN(C)CC1Cc2ccccc2C(c2ccccc2)=N1 (stereo not shown) [compound 6] | 41
CN(C)CCC1Cc2ccccc2C(c2ccccc2[N+](=O)[O-])=N1 (stereo not shown) [compound 34] | 77
CN(C)CC1Cc2ccccc2C(c2ccccc2F)=N1 (stereo not shown) [Code Number 8] | 35
CN1CCN(CC2Cc3ccccc3C(c3ccccc3)=N2)CC1 (stereo not shown) [compound 7] | 170
Cc1ccc(C2=NC(CCN(C)C)Cc3ccccc32)cc1 (stereo not shown) [compound 33] | 70
CN(C)CCC1Cc2ccccc2C(c2ccccc2)=N1 (stereo not shown) [compound 17] | 65
CN(C)CCC1Cc2ccccc2C(c2ccccc2Br)=N1 (stereo not shown) [compound 36] | 77
CN(C)CCC1Cc2ccccc2C(c2ccccc2C(F)(F)F)=N1 (stereo not shown) [compound 103] | 70

System: mice
Test: analgesic activity, phenylbenzoquinone test (E. SIEGMUND)
Type: in vivo
Details: Mus musculus, ip, read-out: ED 50 analgesic property
Text: Soc. Exp. Biol. and Med. 95, 729, (1957).

SMILES | ED50 [mg/kg]
CN(C)CCC1Cc2ccccc2C(c2cccc(F)c2)=N1 (stereo not shown) [compound 23] | 2
NCCC1Cc2ccccc2C(c2ccccc2)=N1 (stereo not shown) [compound 15] | 10
COc1cccc(C2=NC(CCN(C)C)Cc3ccccc32)c1 (stereo not shown) [compound 29] | 10
CN(C)CC1COc2ccccc2C(c2cccc(Cl)c2)=N1 (stereo not shown) [compound 43] | 10
NCCC1Cc2ccccc2C(c2ccccc2F)=N1 (stereo not shown) [compound 20] | 3.7
CN(C)CC1Cc2ccc(Cl)cc2C(c2ccccc2)=N1 (stereo not shown) [Code Number 11] | 3
CN(C)CCC1Cc2ccc(Cl)cc2C(c2ccccc2)=N1 (stereo not shown) [compound 19] | 4
CN(C)CCC1Cc2ccccc2C(c2cccnc2)=N1 (stereo not shown) [compound 108] | 7.6
CN(C)CCC1Cc2ccccc2C(c2ccc([N+](=O)[O-])cc2)=N1 (stereo not shown) [compound 35] | 8
CNCCC1Cc2ccccc2C(c2ccccc2)=N1 (stereo not shown) [compound 16] | 10
Cc1ccccc1C1=NC(CCN(C)C)Cc2ccccc21 (stereo not shown) [compound 31] | 5.6
CNCCC1Cc2ccccc2C(c2ccccc2F)=N1 (stereo not shown) [compound 21] | 10
CN(C)CCC1Cc2ccccc2C(c2ccccn2)=N1 (stereo not shown) [compound 86] | 10
CN(C)CCC1C=C(c2ccccc2)c2ccccc2C1 (stereo not shown) [Code Number 2] | 7.3
CN(C)CCC1C=C(c2ccccc2F)c2ccccc2C1 (stereo not shown) [compound 101] | 4.3
CN(C)CC1Cc2ccc(Cl)cc2C(c2ccccc2F)=N1 (stereo not shown) [Code Number 9] | 3
CN(C)CC1Cc2ccc(F)cc2C(c2ccccc2)=N1 (stereo not shown) [compound 10] | 4
CN(C)CC1Cc2ccccc2C(c2ccccc2)=N1 (stereo not shown) [compound 6] | 5
CN(C)CCC1Cc2ccccc2C(c2ccccc2[N+](=O)[O-])=N1 (stereo not shown) [compound 34] | 3.4
CN(C)CC1Cc2ccccc2C(c2ccccc2F)=N1 (stereo not shown) [Code Number 8] | 2.3
CN1CCN(CC2Cc3ccccc3C(c3ccccc3)=N2)CC1 (stereo not shown) [compound 7] | 6.2
Cc1ccc(C2=NC(CCN(C)C)Cc3ccccc32)cc1 (stereo not shown) [compound 33] | 8.8
CN(C)CCC1Cc2ccccc2C(c2ccccc2)=N1 (stereo not shown) [compound 17] | 6
